In brackets after ≈: the same amount, converted by molar mass.
Legend:
Assay type in all cases: cell-based
[1] = test system: broad range of disease germs; assay: Antimicrobial activities (general statement); conditions: statement in words
[2] = test system: Klebsiella neumoniae 846 (CER resistant); assay: Minimal inhibitory concentration, IV B; conditions: read-out: Minimal inhibitory concentrations
Text: (§1) Minimal inhibitory concentrations of various microorganisms mcg/ml
IV B: Klebsiella neumoniae 846 (CER resistant)

[3] = test system: Staphylococcus aureus (CP and PC resistant); assay: Minimal inhibitory concentration, I B; conditions: read-out: Minimal inhibitory concentrations
Text: as §1
I B: Staphylococcus aureus (CP and PC resistant)

[4] = test system: Shigella flexneri Komagome; assay: Minimal inhibitory concentration, III; conditions: read-out: Minimal inhibitory concentrations
Text: as §1
III: Shigella flexneri Komagome

[5] = test system: Staphylococcus aureus 209p; assay: Minimal inhibitory concentration, I A; conditions: read-out: Minimal inhibitory concentrations
Text: as §1
*I A: Staphylococcus aureus 209p

SMILES	anti-bacterial / antimicrobial activities [1]	further results
CO[C@@]1(NC(=O)CSc2nnc[nH]2)C(=O)N2C(C(=O)O)=C(COC(N)=O)CS[C@@H]21 [7β-(1,2,4-triazol-4H-3-yl)thioacetamido-7α-methoxy-3-carbamoyloxymethyl-3-cephem-4-carboxylic acid]	excellent anti-bacterial activities against a broad range of disease germs	
CO[C@@]1(NC(=O)CSc2nncs2)C(=O)N2C(C(=O)O)=C(CSc3nnnn3C)CS[C@@H]21 [7β-(1,3,4-thiadiazol-2-yl)thioacetamido-7α-methoxy-3-(1-methyl-1H-tetrazol-5-yl)thiomethyl-3-cephem-4-carboxylic acid]	excellent anti-bacterial activities against a broad range of disease germs	
CO[C@@]1(NC(=O)CSc2nncs2)C(=O)N2C(C(=O)O)=C(COC(C)=O)CS[C@@H]21 [7β-(1,3,4-thiadiazol-2-yl)thioacetamido-7α-methoxy-3-acetoxymethyl-3-cephem-4-carboxylic acid]	excellent anti-bacterial activities against a broad range of disease germs	
CO[C@@]1(NC(=O)CSc2nncs2)C(=O)N2C(C(=O)O)=C(COC(N)=O)CS[C@@H]21 [7β-(1,3,4-thiadiazol-2-yl)thioacetamido-7α-methoxy-3-carbamoyloxymethyl-3-cephem-4-carboxylic acid]	excellent anti-bacterial activities against a broad range of disease germs	
CO[C@@]1(NC(=O)CSc2ccon2)C(=O)N2C(C(=O)O)=C(COC(C)=O)CS[C@@H]21 [7β-(3-isoxazolyl)thioacetamido-7α-methoxy-3-acetoxymethyl-3-cephem 4-carboxylic acid]	excellent anti-bacterial activities against a broad range of disease germs	
CO[C@@]1(NC(=O)COc2ccon2)C(=O)N2C(C(=O)O)=C(CSc3nnnn3C)CS[C@@H]21 [7β-(3-isoxazolyloxy)acetamido-7α-methoxy-3-(1-methyl-1H-tetrazol-5-yl)thiomethyl-3-cephem-4-carboxylic acid]	excellent anti-bacterial activities against a broad range of disease germs	MIC [2]: > 400 µg/mL; MIC [3]: 0.8 µg/mL (≈ 1.65 µM); MIC [4]: 3.1 µg/mL (≈ 6.41 µM); MIC [5]: 0.2 µg/mL (≈ 0.414 µM)
CO[C@@]1(NC(=O)COc2ccon2)C(=O)N2C(C(=O)O)=C(COC(C)=O)CS[C@@H]21 [7β-(3-isoxazolyloxy)acetamido-7α-methoxy-3-acetoxymethyl-3-cephem-4-carboxylic acid]	excellent anti-bacterial activities against a broad range of disease germs	
CO[C@@]1(NC(=O)CSc2nnc(C)s2)C(=O)N2C(C(=O)O)=C(CSc3nnnn3C)CS[C@@H]21 [7β-(5-methyl-1,3,4-thiadiazol-2-yl)thioacetamido-7α-methoxy-3-(1-methyl-1H-tetrazol-5-yl)thiomethyl-3-cephem-4-carboxylic acid]	excellent anti-bacterial activities against a broad range of disease germs	
CO[C@@]1(NC(=O)CSc2nnc(C)s2)C(=O)N2C(C(=O)O)=C(COC(N)=O)CS[C@@H]21 [7β-(5-methyl-1,3,4-thiadiazol-2-yl)thioacetamido-7α-methoxy-3-carbamoyloxymethyl-3-cephem-4-carboxylic acid]	excellent anti-bacterial activities against a broad range of disease germs	
CO[C@@]1(NC(=O)CSc2ncc[nH]2)C(=O)N2C(C(=O)O)=C(CSc3nnnn3C)CS[C@@H]21 [7β-(imidazol-2-yl)thioacetamido-7α-methoxy-3-(1-methyl-1H-tetrazol-5-yl)thiomethyl-3-cephem-4-carboxylic acid]	excellent anti-bacterial activities against a broad range of disease germs	
CO[C@@]1(NC(=O)CSc2ncc[nH]2)C(=O)N2C(C(=O)O)=C(COC(C)=O)CS[C@@H]21 [7β-(imidazol-2-yl)thioacetamido-7α-methoxy-3-acetoxymethyl-3-cephem-4-carboxylic acid]	excellent anti-bacterial activities against a broad range of disease germs	
CO[C@@]1(NC(=O)CSc2ncc[nH]2)C(=O)N2C(C(=O)O)=C(COC(N)=O)CS[C@@H]21 [7β-(imidazol-2-yl)thioacetamido-7α-methoxy-3-carbamoyloxymethyl-3-cephem-4-carboxylic acid]	excellent anti-bacterial activities against a broad range of disease germs	
CO[C@@]1(NC(=O)CSCN=[N+]=[N-])C(=O)N2C(C(=O)O)=C(COC(C)=O)CS[C@@H]21 [7β-azidomethylthioacetamido-7α-methoxy-3-acetoxymethyl-3-cephem-4-carboxylic acid]	excellent anti-bacterial activities against a broad range of disease germs	
CO[C@@]1(NC(=O)CSCC#N)C(=O)N2C(C(=O)O)=C(CSc3nnnn3C)CS[C@@H]21 [7β-cyanomethylthioacetamido-7α-methoxy-3-(1-methyl-1H-tetrazol-5-yl)thiomethyl-3-cephem-4-carboxylic acid]	excellent anti-bacterial activities against a broad range of disease germs	
CO[C@@]1(NC(=O)CSCC#N)C(=O)N2C(C(=O)O)=C(COC(C)=O)CS[C@@H]21 [7β-cyanomethylthioacetamido-7α-methoxy-3-acetoxymethyl-3-cephem-4-carboxylic acid]	excellent anti-bacterial activities against a broad range of disease germs	
CO[C@@]1(NC(=O)CSCC#N)C(=O)N2C(C(=O)O)=C(COC(N)=O)CS[C@@H]21 [7β-cyanomethylthioacetamido-7α-methoxy-3-carbamoyloxymethyl-3-cephem-4-carboxylic acid]	excellent anti-bacterial activities against a broad range of disease germs	
C#CCSCC(=O)N[C@]1(OC)C(=O)N2C(C(=O)O)=C(CSc3nnnn3C)CS[C@@H]21 [7β-propargylthioacetamido-7α-methoxy-3-(1-methyl-1H-tetrazol-5-yl)thiomethyl-3-cephem-4-carboxylic acid]	excellent anti-bacterial activities against a broad range of disease germs	
C#CCSCC(=O)N[C@]1(OC)C(=O)N2C(C(=O)O)=C(COC(C)=O)CS[C@@H]21 [7β-propargylthioacetamido-7α-methoxy-3-acetoxymethyl-3-cephem-4-carboxylic acid]	excellent anti-bacterial activities against a broad range of disease germs	
C#CCSCC(=O)N[C@]1(OC)C(=O)N2C(C(=O)O)=C(COC(N)=O)CS[C@@H]21 [7β-propargylthioacetamido-7α-methoxy-3-carbamoyloxymethyl-3-cephem-4-carboxylic acid]	excellent anti-bacterial activities against a broad range of disease germs	
